Experimental data reported in patent US20150119388A1, “NOVEL PRO- AND CODRUG DERIVATIVES FOR NANOPARTICLE DELIVERY OF SELECT ANTICANCER AGENTS FORMED USING RAPIDLY CLEAVABLE PHENOLIC ESTER BRIDGES” (THE CHILDREN'S HOSPITAL OF PHILADELPHIA, priority 2012, published 2015).

Key:
[1] = tested on: carboxylesterase; conditions: carboxylesterase-mediated; rest eliminated through alternative pathways; cited from earlier work
[2] = tested on: SY5Y-TrkB human neuroblastoma cells; assay: Tumor growth inhibition in the murine xenograft model of neuroblastoma; format: in vivo, athymic nu/nu mice; conditions: three weeks
Experimental: For xenograft studies, athymic nu/nu mice (nine animals per group) were injected in the flank with 10^7 SY5Y-TrkB human neuroblastoma cells in 0.3 mL […]™ matrix (BD Biosciences, Franklin Lakes, N.J.). Treatment was started when the average SY5Y-TrkB tumor size was 0.2 cm^3. Nanoparticles were administered intravenously through the tail vein twice a week at a dose equivalent to 10 mg/kg of SN-38 per injection for comparison against a ‘no treatment’ control and a clinically used irinotecan formulation (CAMPTOSAR®, Pfizer, given orally five times a week at a therapeutically relevant dose of 10 mg/kg as described in Thompson J. et al., Efficacy of oral irinotecan against neuroblastoma xenografts, Anticancer Drugs. 1997 April; 8(4):313-22). Tumor size in each group was measured daily over a period of three weeks. […] The error bars in FIG. 2A represent standard deviations.
Tumor growth inhibition by PLA-PEG nanoparticles loaded with an SN-38 conjugate with tocopherol succinate (made according to Example 7) was administered over 4 weeks at indicated dose regimens (each injection equivalent to 10 mg SN-38/kg) to animals xenografted as in Example 8. The effect is shown in comparison to irinotecan administered 5 times a week for 4 weeks at the same dose per injection. Animals were sacrificed after their tumors reached 3 cm^3. […]

Compound: CCc1c2c(nc3ccc(OC(=O)N4CCC(N5CCCCC5)CC4)cc13)-c1cc3c(c(=O)n1C2)COC(=O)[C@]3(O)CC [irinotecan]
- rate of conversion to the pharmacologically active SN-38 [1]: less than 10%
- efficacy on tumor size (FIG. 2A) ([2]; CAMPTOSAR given orally five times a week at 10 mg/kg (50 mg/kg per week)): showed efficacy vs. ‘no treatment’ control
- animal survival (FIG. 2B) ([2]; CAMPTOSAR given orally five times a week at 10 mg/kg, vs 'no treatment' control): significantly improved animal survival compared with the control group
